Assay results taken from patent publication US20260295053A1, “COMPOUNDS FOR DEGRADATION AND INHIBITION OF KRAS (G12D) PROTEIN” (Shenzhen Ionova Life Science Co., Ltd., priority 2023, published 2026).

Columns and labels:
AsPC-1 cells = experiment: AsPC-1 cell proliferation assay (CellTiter Glo); type: cell-based; conditions: Homo sapiens, ASPC1, 144 h, 6 days
In short: (§1)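 AsPC-1 cells: for degradation, grown to ~90% confluency, treated 24 h with 1:3 compound series ([…] to 1.5 nM), then fixed and immunostained for KRAS G12D and β-actin, read by infrared fluorescence, DC50 fitted. Proliferation: 3,500 cells/well, 6-day treatment, CellTiter Glo luminescence, IC50 fitted.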

KRAS (G12D) = target: T1, KRAS (G12D) (Homo sapiens, UniProt P01116, G12D); experiment: KRAS (G12D) cellular degradation assay in AsPC-1 cells; type: cell-based; conditions: 24 hours, antibody fluorescence (Odyssey CLX), DC50 half-maximal degradation concentration
T1 construct: in-cell western with KRAS G12D antibody after 24 h
In short: as §1

T1 sequence (P01116 1-188 isoform P01116-2 G12D): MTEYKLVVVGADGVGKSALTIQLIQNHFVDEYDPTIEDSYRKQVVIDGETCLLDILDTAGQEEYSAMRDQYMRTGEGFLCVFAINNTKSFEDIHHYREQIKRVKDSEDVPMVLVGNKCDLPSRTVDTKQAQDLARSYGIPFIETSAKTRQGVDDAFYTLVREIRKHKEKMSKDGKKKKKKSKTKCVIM

Row | Compound | IC50 (AsPC-1 cells) | DC50 (KRAS (G12D))
1 | CCn1nccc1-c1cc(F)c([C@@H](NC(=O)[C@@H]2C[C@@H](O)CN2C(=O)[C@H](C(C)C)n2cc(-c3ccc(COc4c(-c5c(C)c(F)cc6[nH]ncc56)c(C5CC5)cc5c(N6C[C@@H]7C[C@H]6CN7)nc(O[C@H]6C[C@H](OC)C6)nc45)cc3)nn2)[C@H](C)O)c(F)c1 [Example 196, (2S,4R)-1-((2S)-2-(4-(4-(((4-((1S,4S)-2,5-diazabicyclo[2.2.1]heptan-2-yl)-6-cyclopropyl-7-(6-fluoro-5-methyl-1H-indazol-4-yl)-2-((1r,3S)-3-methoxycyclobutoxy)quinazolin-8-yl)oxy)methyl)phenyl)-1H-1,2,3-triazol-1-yl)-3-methylbutanoyl)-N-((1R,2S)-1-(4-(1-ethyl-1H-pyrazol-5-yl)-2,6-difluorophenyl)-2-hydroxypropyl)-4-hydroxypyrrolidine-2-carboxamide] | 10 to 100 nM | 10 to 100 nM
2 | CCn1nccc1-c1ccc([C@H](CO)NC(=O)[C@@H]2C[C@@H](O)CN2C(=O)[C@H](C(C)C)n2cc(-c3ccc(COc4c(-c5c(C)c(F)cc6[nH]ncc56)c(C5CC5)cc5c(N(C)[C@H]6[C@@H]7CN[C@H]6C7)nc(OC[C@H](C)OC)nc45)cc3)nn2)cc1 [Example 197, (2S,4R)-1-((2S)-2-(4-(4-(((4-(((1S,4S,5S)-2-azabicyclo[2.1.1]hexan-5-yl)(methyl)amino)-6-cyclopropyl-7-(6-fluoro-5-methyl-1H-indazol-4-yl)-2-((S)-2-methoxypropoxy)quinazolin-8-yl)oxy)methyl)phenyl)-1H-1,2,3-triazol-1-yl)-3-methylbutanoyl)-N—((R)-1-(4-(1-ethyl-1H-pyrazol-5-yl)phenyl)-2-hydroxyethyl)-4-hydroxypyrrolidine-2-carboxamide] | < 10 nM | < 10 nM
3 | CCn1nccc1-c1ccc([C@@H](NC(=O)[C@@H]2C[C@@H](O)CN2C(=O)[C@H](C(C)C)n2cc(-c3ccc(COc4c(-c5c(C)c(F)cc6[nH]ncc56)c(C5CC5)cc5c(N6C[C@@H]7C[C@H]6CN7)nc(O[C@H]6C[C@H](OC)C6)nc45)cc3)nn2)[C@H](C)O)c(F)c1 [Example 198, (2S,4R)-1-((2S)-2-(4-(4-(((4-((1S,4S)-2,5-diazabicyclo[2.2.1]heptan-2-yl)-6-cyclopropyl-7-(6-fluoro-5-methyl-1H-indazol-4-yl)-2-((1r,3S)-3-methoxycyclobutoxy)quinazolin-8-yl)oxy)methyl)phenyl)-1H-1,2,3-triazol-1-yl)-3-methylbutanoyl)-N-((1R,2S)-1-(4-(1-ethyl-1H-pyrazol-5-yl)-2-fluorophenyl)-2-hydroxypropyl)-4-hydroxypyrrolidine-2-carboxamide] | < 10 nM | < 10 nM
4 | CO[C@H]1C[C@H](Oc2nc(N3CCCNCC3)c3cc(C4CC4)c(-c4c(C)c(F)cc5[nH]ncc45)c(OCc4ccc(-c5cn([C@H](C(=O)N6C[C@H](O)C[C@H]6C(=O)N[C@@H](CO)c6ccc(-c7scnc7C)cc6)C(C)C)nn5)cc4)c3n2)C1 [Example 199, (2S,4R)-1-((2S)-2-(4-(4-(((6-cyclopropyl-4-(1,4-diazepan-1-yl)-7-(6-fluoro-5-methyl-1H-indazol-4-yl)-2-((1r,3r)-3-methoxycyclobutoxy)quinazolin-8-yl)oxy)methyl)phenyl)-1H-1,2,3-triazol-1-yl)-3-methylbutanoyl)-4-hydroxy-N—((R)-2-hydroxy-1-(4-(4-methylthiazol-5-yl)phenyl)ethyl)pyrrolidine-2-carboxamide] | < 10 nM | < 10 nM
5 | CCn1nccc1-c1ccc([C@@H](NC(=O)[C@@H]2C[C@@H](O)CN2C(=O)[C@H](C(C)C)n2cc(-c3ccc(COc4c(-c5c(C)c(F)cc6[nH]ncc56)c(C5CC5)cc5c(N6CCNCC[C@H]6C)nc(OC[C@H](C)OC)nc45)cc3)nn2)[C@H](C)O)cc1 [Example 201, (2S,4R)-1-((2S)-2-(4-(4-(((6-cyclopropyl-7-(6-fluoro-5-methyl-1H-indazol-4-yl)-2-((S)-2-methoxypropoxy)-4-((R)-7-methyl-1,4-diazepan-1-yl)quinazolin-8-yl)oxy)methyl)phenyl)-1H-1,2,3-triazol-1-yl)-3-methylbutanoyl)-N-((1R,2S)-1-(4-(1-ethyl-1H-pyrazol-5-yl)phenyl)-2-hydroxypropyl)-4-hydroxypyrrolidine-2-carboxamide] | < 10 nM | < 10 nM
6 | CO[C@H]1C[C@H](Oc2nc(N(C)[C@@H]3CCNC3)c3cc(C4CC4)c(-c4c(C)c(F)cc5[nH]ncc45)c(OCc4ccc(-c5cn([C@H](C(=O)N6C[C@H](O)C[C@H]6C(=O)N[C@H](c6ccc(-c7scnc7C)cc6)[C@H](C)O)C(C)C)nn5)cc4)c3n2)C1 [Example 202, (2S,4R)-1-((2S)-2-(4-(4-(((6-cyclopropyl-7-(6-fluoro-5-methyl-1H-indazol-4-yl)-2-((1r,3R)-3-methoxycyclobutoxy)-4-(methyl((R)-pyrrolidin-3-yl)amino)quinazolin-8-yl)oxy)methyl)phenyl)-1H-1,2,3-triazol-1-yl)-3-methylbutanoyl)-4-hydroxy-N-((1R,2S)-2-hydroxy-1-(4-(4-methylthiazol-5-yl)phenyl)propyl)pyrrolidine-2-carboxamide] | < 10 nM | < 10 nM
7 | CO[C@H]1C[C@H](Oc2nc(N(C)[C@@H]3CCNC3)c3cc(C4CC4)c(-c4c(C)c(F)cc5[nH]ncc45)c(OCc4ccc(-c5cn([C@H](C(=O)N6C[C@H](O)C[C@H]6C(=O)N[C@@H](CO)c6ccc(-c7scnc7C)cc6)C(C)C)nn5)cc4)c3n2)C1 [Example 203, (2S,4R)-1-((2S)-2-(4-(4-(((6-cyclopropyl-7-(6-fluoro-5-methyl-1H-indazol-4-yl)-2-((1r,3R)-3-methoxycyclobutoxy)-4-(methyl((R)-pyrrolidin-3-yl)amino)quinazolin-8-yl)oxy)methyl)phenyl)-1H-1,2,3-triazol-1-yl)-3-methylbutanoyl)-4-hydroxy-N—((R)-2-hydroxy-1-(4-(4-methylthiazol-5-yl)phenyl)ethyl)pyrrolidine-2-carboxamide] | < 10 nM | < 10 nM
8 | CCn1nccc1-c1ccc([C@H](CO)NC(=O)[C@@H]2C[C@@H](O)CN2C(=O)[C@H](C(C)C)n2cc(-c3ccc(COc4c(-c5c(C)c(F)cc6[nH]ncc56)c(C5CC5)cc5c(N(C)[C@@H]6CCNC6)nc(O[C@H]6C[C@H](OC)C6)nc45)cc3)nn2)c2c1CC2 [Example 204, (2S,4R)-1-((2S)-2-(4-(4-(((6-cyclopropyl-7-(6-fluoro-5-methyl-1H-indazol-4-yl)-2-((1r,3R)-3-methoxycyclobutoxy)-4-(methyl((R)-pyrrolidin-3-yl)amino)quinazolin-8-yl)oxy)methyl)phenyl)-1H-1,2,3-triazol-1-yl)-3-methylbutanoyl)-N—((R)-1-(5-(1-ethyl-1H-pyrazol-5-yl)bicyclo[4.2.0]octa-1(6),2,4-trien-2-yl)-2-hydroxyethyl)-4-hydroxypyrrolidine-2-carboxamide] | < 10 nM | < 10 nM
9 | CCn1nccc1-c1ccc([C@H](CO)NC(=O)[C@@H]2C[C@@H](O)CN2C(=O)[C@H](C(C)C)n2cc(-c3ccc(COc4c(-c5c(C)c(F)cc6[nH]ncc56)c(C5CC5)cc5c(N(C)[C@@H]6CCNC6)nc(O[C@H]6C[C@H](OC)C6)nc45)cc3)nn2)cc1 [Example 205, (2S,4R)-1-((2S)-2-(4-(4-(((6-cyclopropyl-7-(6-fluoro-5-methyl-1H-indazol-4-yl)-2-((1r,3R)-3-methoxycyclobutoxy)-4-(methyl((R)-pyrrolidin-3-yl)amino)quinazolin-8-yl)oxy)methyl)phenyl)-1H-1,2,3-triazol-1-yl)-3-methylbutanoyl)-N—((R)-1-(4-(1-ethyl-1H-pyrazol-5-yl)phenyl)-2-hydroxyethyl)-4-hydroxypyrrolidine-2-carboxamide] | < 10 nM | < 10 nM
10 | CCn1nccc1-c1ccc([C@H](CO)NC(=O)[C@@H]2C[C@@H](O)CN2C(=O)[C@H](C(C)C)n2cc(-c3ccc(COc4c(-c5c(C)c(F)cc6[nH]ncc56)c(C5CC5)cc5c(N(C)C[C@H]6CCNC6)nc(OC[C@H](C)OC)nc45)cc3)nn2)cc1 [Example 206, (2S,4R)-1-((2S)-2-(4-(4-(((6-cyclopropyl-7-(6-fluoro-5-methyl-1H-indazol-4-yl)-2-((S)-2-methoxypropoxy)-4-(methyl(((S)-pyrrolidin-3-yl)methyl)amino)quinazolin-8-yl)oxy)methyl)phenyl)-1H-1,2,3-triazol-1-yl)-3-methylbutanoyl)-N—((R)-1-(4-(1-ethyl-1H-pyrazol-5-yl)phenyl)-2-hydroxyethyl)-4-hydroxypyrrolidine-2-carboxamide] | < 10 nM | < 10 nM
11 | CCn1nccc1-c1ccc([C@H](CO)NC(=O)[C@@H]2C[C@@H](O)CN2C(=O)[C@H](C(C)C)n2cc(-c3ccc(COc4c(-c5c(C)c(F)cc6[nH]ncc56)c(C5CC5)cc5c(N6CCCNCC6)nc(OC[C@@H]6CCCO6)nc45)cc3)nn2)cc1 [Example 207, (2S,4R)-1-((2S)-2-(4-(4-(((6-cyclopropyl-4-(1,4-diazepan-1-yl)-7-(6-fluoro-5-methyl-1H-indazol-4-yl)-2-(((S)-tetrahydrofuran-2-yl)methoxy)quinazolin-8-yl)oxy)methyl)phenyl)-1H-1,2,3-triazol-1-yl)-3-methylbutanoyl)-N—((R)-1-(4-(1-ethyl-1H-pyrazol-5-yl)phenyl)-2-hydroxyethyl)-4-hydroxypyrrolidine-2-carboxamide] | < 10 nM | < 10 nM
